The test concerns the target T1, PRKCD (PKC delta) (Homo sapiens, UniProt Q05655).
T1 construct: purchased Thermo Fisher Scientific (Life Technologies) SelectScreen
The experiment in a line: SelectScreen Z'LYTE. It is filed as biochemical. A digest of the protocol: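 SelectScreen broad panel; activity (Z'LYTE, Adapta) plus binding formats. ATP: Km app for CSF1R Z'LYTE; 10 for CAMK1 Adapta. Readout = % per kinase.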

T1 sequence (Q05655 whole entry): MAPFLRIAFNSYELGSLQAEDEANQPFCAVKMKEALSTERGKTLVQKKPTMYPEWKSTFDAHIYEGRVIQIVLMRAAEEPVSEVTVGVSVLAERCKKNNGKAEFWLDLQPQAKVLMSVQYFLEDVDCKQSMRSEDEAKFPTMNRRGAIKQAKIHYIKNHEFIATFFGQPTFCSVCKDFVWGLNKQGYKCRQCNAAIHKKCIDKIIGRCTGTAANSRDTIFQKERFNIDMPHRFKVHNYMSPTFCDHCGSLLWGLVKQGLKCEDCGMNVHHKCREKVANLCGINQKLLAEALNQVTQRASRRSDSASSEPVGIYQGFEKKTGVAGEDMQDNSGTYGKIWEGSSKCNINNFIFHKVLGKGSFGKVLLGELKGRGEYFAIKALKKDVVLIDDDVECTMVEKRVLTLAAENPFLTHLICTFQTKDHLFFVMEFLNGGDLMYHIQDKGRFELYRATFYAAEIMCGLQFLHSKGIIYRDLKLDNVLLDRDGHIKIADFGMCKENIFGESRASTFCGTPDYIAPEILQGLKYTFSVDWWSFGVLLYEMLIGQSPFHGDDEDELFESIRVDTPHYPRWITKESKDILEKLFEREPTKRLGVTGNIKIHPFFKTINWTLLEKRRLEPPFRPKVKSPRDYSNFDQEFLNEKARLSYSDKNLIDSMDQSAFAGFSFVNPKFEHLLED

As a reminder, the inhibition is the drop in the measured response relative to a control, in per cent. High values mean strong suppression, low ones little suppression. Consider `CN(C(=O)CN1CCOCC1)c1ccc2sc3c(-c4cccc5c(=O)cc(N6CC7CCC(C6)O7)oc45)cccc3c2c1` [NU5455], for which 1 µM produced 6.2% inhibition.

Source of the values: PMC6934184, “Selective DNA-PKcs inhibition extends the therapeutic index of localized radiotherapy and chemotherapy” (The Journal of Clinical Investigation, 2019).
